Patent publication US10919851B2, “2-pyrrolidine phenylhydrazides antibacterial agents” (ABAC THERAPEUTICS, S.L, priority 2016, dated 2021)
≈ marks a conversion by molar mass, not a printed value.

How the values were obtained:
[1] = tested on: Staphylococcus aureus; assay: MIC, standard microtiter dilution method (CLSI M07-A9); type: cell-based; details: Cation adjusted Mueller-Hinton Broth, 37° C., 24 hours, read-out: MIC S. aureus
Description: (§1) The products of the present invention were tested for their activity against Acinetobacter baumannii (A. baumannii) as well as against the following bacteria: Staphylococcus aureus (S. aureus), Streptococcus pneumoniae (S. pneumoniae), Enterococcus faecium (E. faecium), Pseudomonas aeruginosa (P. aeruginosa), Klebsiella pneumoniae (K. pneumoniae) and Escherichia coli (E. coli). Minimal inhibitory concentrations (MICs) were determined using a standard microtiter dilution method, according to the Clinical and Laboratory Standards Institute (CLSI) procedures, in particular according to […]-A9: “Methods for Dilution Antimicrobial Susceptibility Tests for Bacteria That Grow Aerobically; Approved Standard-Ninth Edition”. Briefly, compounds were dissolved with dimethyl sulfoxide (DMSO) at 12.8 mg/mL. Serial two-fold dilutions of compounds were performed in DMSO and 1 μl of each dilution were transferred into microtiter culture plates, followed by 100 μl of inoculated culture media to give a final microorganism concentration of 5×10^5 colony-forming units/mL. Plates were incubated at 37° C. for 24 hours and MICs determined as the lowest compound concentration that inhibited growth. Media used in determinations were Cation adjusted Mueller-Hinton Broth for all the microorganisms except for S. pneumoniae and E. faecium whose culture media were supplemented with 2.5% of lysed horse blood. Incubations were performed at air atmosphere except S. pneumoniae cultures that were incubated with 5% CO2 atmosphere.

[2] = tested on: Escherichia coli; assay: as above; type: cell-based; details: Cation adjusted Mueller-Hinton Broth, 37° C., 24 hours
Description: as §1

[3] = tested on: Acinetobacter baumannii; assay: as above; type: cell-based; details: Cation adjusted Mueller-Hinton Broth, 37° C., 24 hours
Description: as §1

[4] = tested on: Pseudomonas aeruginosa; assay: as above; type: cell-based; details: Cation adjusted Mueller-Hinton Broth, 37° C., 24 hours, read-out: MIC P. aeruginosa
Description: as §1

[5] = tested on: Klebsiella pneumoniae; assay: as above; type: cell-based; details: Cation adjusted Mueller-Hinton Broth, 37° C., 24 hours, read-out: MIC K. pneumoniae
Description: as §1

[6] = tested on: Enterococcus faecium; assay: as above; type: cell-based; details: media with 2.5% lysed horse blood, 37° C., 24 hours, read-out: MIC E. faecium
Description: as §1

[7] = tested on: Streptococcus pneumoniae; assay: as above; type: cell-based; details: media with 2.5% lysed horse blood, 5% CO2, 37° C., 24 hours, read-out: MIC S. pneumoniae
Description: as §1

Row | MIC [1] | MIC [2] | MIC [3] | MIC [4] | MIC [5] | MIC [6] | MIC [7] | melting point | SMILES
1 | > 128 µg/mL | > 128 µg/mL | 2 µg/mL | > 128 µg/mL | > 128 µg/mL | > 128 µg/mL | > 128 µg/mL | – | Cl.N=C(N)N1CCCC1C(=O)NNc1ccc(F)cc1 (stereo not drawn) [Example 30, 2-(2-(4-fluorophenyl)hydrazinecarbonyl)pyrrolidine-1-carboximidamide hydrochloride]
2 | > 128 µg/mL | > 128 µg/mL | 4 µg/mL (≈ 15 µM) | > 128 µg/mL | > 128 µg/mL | > 128 µg/mL | > 128 µg/mL | – | NC(=O)N1CCC[C@H]1C(=O)NNc1ccc(F)cc1 [Example 3, (S)-2-(2-(4-fluorophenyl) hydrazinecarbonyl) pyrrolidine-1-carboxamide]
3 | > 128 µg/mL | > 128 µg/mL | 2 µg/mL (≈ 7.51 µM) | > 128 µg/mL | > 128 µg/mL | > 128 µg/mL | > 128 µg/mL | 140 to 144 °C | NC(=O)N1CCCC1C(=O)NNc1ccc(F)cc1 (stereo not drawn) [Example 4, 2-(2-(4-fluorophenyl)hydrazinecarbonyl)pyrrolidine-1-carboxamide]
4 | > 128 µg/mL | > 128 µg/mL | 4 µg/mL (≈ 15 µM) | > 128 µg/mL | > 128 µg/mL | > 128 µg/mL | > 128 µg/mL | – | NC(=O)N1CCC[C@@H]1C(=O)NNc1ccc(F)cc1 [Example 2, (R)-2-(2-(4-fluorophenyl)hydrazinecarbonyl)pyrrolidine-1-carboxamide]
5 | 128 µg/mL (≈ 385 µM) | > 128 µg/mL | 8 µg/mL (≈ 24.1 µM) | > 128 µg/mL | > 128 µg/mL | > 128 µg/mL | > 128 µg/mL | – | NC(=O)N1CCCC1C(=O)NNc1ccc(OC(F)(F)F)cc1 (stereo not drawn) [Example 7, 2-(2-(4-(trifluoromethoxy)phenyl)hydrazinecarbonyl)pyrrolidine-1-carboxamide]
6 | > 128 µg/mL | > 128 µg/mL | 2 µg/mL (≈ 7.19 µM) | > 128 µg/mL | > 128 µg/mL | > 128 µg/mL | > 128 µg/mL | – | COc1ccc(NNC(=O)C2CCCN2C(N)=O)cc1 (stereo not drawn) [Example 10, 2-(2-(4-methoxyphenyl)hydrazinecarbonyl)pyrrolidine-1-carboxamide]
7 | > 128 µg/mL | > 128 µg/mL | 2 µg/mL (≈ 7.54 µM) | > 128 µg/mL | > 128 µg/mL | > 128 µg/mL | > 128 µg/mL | – | CC(=O)N1CCC[C@@H]1C(=O)NNc1ccc(F)cc1 [Example 14, (R)-1-acetyl-N′-(4-fluorophenyl)pyrrolidine-2-carbohydrazide]

Further lines, the compound ahead of its results:

Row | SMILES | MIC [1] | MIC [2] | MIC [3] | MIC [4] | MIC [5] | MIC [6] | MIC [7] | melting point
8 | Cl.O=C(NNc1ccc(F)cc1)C1CCCN1C(=O)N1CCNCC1 (stereo not drawn) [Example 18, N′-(4-fluorophenyl)-1-(piperazine-1-carbonyl)pyrrolidine-2-carbohydrazide hydrochloride] | 128 µg/mL | > 128 µg/mL | 8 µg/mL | > 128 µg/mL | > 128 µg/mL | > 128 µg/mL | > 128 µg/mL | –
9 | NC(=O)N1CCCC1C(=O)NNc1ccc2c(c1)OCCO2 (stereo not drawn) [Example 11, 2-(2-(2,3-dihydrobenzo[b][1,4]dioxin-6-yl) hydrazinecarbonyl)pyrrolidine-1-carboxamide] | > 128 µg/mL | > 128 µg/mL | 8 µg/mL (≈ 26.1 µM) | > 128 µg/mL | > 128 µg/mL | > 128 µg/mL | > 128 µg/mL | –
10 | NC(=O)N1CCCC1C(=O)NNc1ccc(Cl)cc1F (stereo not drawn) [Example 9, 2-(2-(4-chloro-2-fluorophenyl)hydrazinecarbonyl)pyrrolidine-1-carboxamide] | > 128 µg/mL | > 128 µg/mL | 8 µg/mL (≈ 26.6 µM) | > 128 µg/mL | > 128 µg/mL | > 128 µg/mL | > 128 µg/mL | –
11 | O=C(NNc1ccc(F)cc1)C1CCCN1O (stereo not drawn) [Example 15, N′-(4-fluorophenyl)-1-hydroxypyrrolidine-2-carbohydrazide] | > 128 µg/mL | > 128 µg/mL | 1 µg/mL (≈ 4.18 µM) | > 128 µg/mL | > 128 µg/mL | > 128 µg/mL | > 128 µg/mL | –
12 | O=C(NNc1ccc(F)cc1)[C@@H]1CCCN1CC1CC1 [Example 25, (S)-1-(cyclopropylmethyl)-N′-(4-fluorophenyl)pyrrolidine-2-carbohydrazide] | > 128 µg/mL | > 128 µg/mL | 0.25 µg/mL (≈ 0.901 µM) | > 128 µg/mL | > 128 µg/mL | > 128 µg/mL | > 128 µg/mL | –
13 | CN1CCCC1(C)C(=O)NNc1ccc(F)cc1 (stereo not drawn) [Example 16, N′-(4-fluorophenyl)-1,2-dimethylpyrrolidine-2-carbohydrazide] | > 128 µg/mL | > 128 µg/mL | 0.25 µg/mL (≈ 0.995 µM) | > 128 µg/mL | > 128 µg/mL | > 128 µg/mL | > 128 µg/mL | –
14 | CN1CC2CC2C1C(=O)NNc1ccc(F)cc1 (stereo not drawn) [Example 26, N′-(4-fluorophenyl)-3-methyl-3-azabicyclo[3.1.0]hexane-2-carbohydrazide] | > 128 µg/mL | > 128 µg/mL | 0.25 µg/mL (≈ 1 µM) | > 128 µg/mL | > 128 µg/mL | > 128 µg/mL | > 128 µg/mL | –
